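Cells were grown in 96-well plates and exposed to each compound for 48 hours at five concentrations; endpoints were interpolated linearly between bracketing concentrations, or set to the highest concentration if not reached. GI50: concentration for 50% inhibition of growth. Definition used: TGI = concentration required for complete inhibition of growth.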
Tests used:
Assay in all cases: DTP human tumour cell line panel, 48 h
HL-60(TB) leukemia = system: HL-60(TB) leukemia
PC-3 prostate = system: PC-3 prostate
NCI-H23 lung = system: NCI-H23 lung
NCI/ADR-RES ovarian = system: NCI/ADR-RES ovarian
ACHN renal = system: ACHN renal
HOP-62 NSCLC = system: HOP-62 NSCLC
K-562 leukemia = system: K-562 leukemia
HCT-116 colon = system: HCT-116 colon
HT29 colon = system: HT29 colon
MCF7 breast = system: MCF7 breast
SK-MEL-2 melanoma = system: SK-MEL-2 melanoma
SNB-19 CNS = system: SNB-19 CNS
HCT-15 colon = system: HCT-15 colon
MDA-MB-231 breast = system: MDA-MB-231 breast
T-47D breast = system: T-47D breast
SK-MEL-5 melanoma = system: SK-MEL-5 melanoma
SF-539 CNS = system: SF-539 CNS
DU-145 prostate = system: DU-145 prostate
UACC-62 melanoma = system: UACC-62 melanoma
SN12C renal = system: SN12C renal
TK-10 renal = system: TK-10 renal
SF-295 CNS = system: SF-295 CNS
SF-268 CNS = system: SF-268 CNS
NCI-H226 lung = system: NCI-H226 lung
A498 renal = system: A498 renal
MDA-MB-435 = system: MDA-MB-435
LOX IMVI melanoma = system: LOX IMVI melanoma
UACC-257 melanoma = system: UACC-257 melanoma
SK-OV-3 ovarian = system: SK-OV-3 ovarian
M14 melanoma = system: M14 melanoma
CAKI-1 renal = system: CAKI-1 renal
CCRF-CEM leukemia = system: CCRF-CEM leukemia
SNB-75 CNS = system: SNB-75 CNS
UO-31 renal = system: UO-31 renal
OVCAR-5 ovarian = system: OVCAR-5 ovarian
BT-549 breast = system: BT-549 breast
A549 NSCLC = system: A549 NSCLC
786-0 renal = system: 786-0 renal
SR leukemia = system: SR leukemia
OVCAR-3 ovarian = system: OVCAR-3 ovarian
HCC-2998 colon = system: HCC-2998 colon
RPMI-8226 leukemia = system: RPMI-8226 leukemia
SW-620 colon = system: SW-620 colon
COLO 205 colon = system: COLO 205 colon
KM12 colon = system: KM12 colon
IGROV1 ovarian = system: IGROV1 ovarian
MOLT-4 leukemia = system: MOLT-4 leukemia
RXF 393 renal = system: RXF 393 renal
NCI-H522 lung = system: NCI-H522 lung
SK-MEL-28 melanoma = system: SK-MEL-28 melanoma
NCI-H460 lung = system: NCI-H460 lung
U251 CNS = system: U251 CNS
HS 578T breast = system: HS 578T breast
MALME-3M melanoma = system: MALME-3M melanoma
OVCAR-4 ovarian = system: OVCAR-4 ovarian

## C/C(=N\Nc1cc(C)c2cc(C)ccc2n1)c1ccccn1
HL-60(TB) leukemia
  GI50: < 43.1 nM
  TGI: 129 nM
PC-3 prostate
  TGI: 2320 nM
NCI-H23 lung
  GI50: 139 nM
  TGI: 10200 nM
NCI/ADR-RES ovarian
  GI50: 66.6 nM
  TGI: 3850 nM
ACHN renal
  GI50: < 42.4 nM
  TGI: 1140 nM
HOP-62 NSCLC
  GI50: 55 nM
  TGI: 1410 nM
K-562 leukemia
  GI50: 95 nM
  TGI: 1430 nM
HCT-116 colon
  GI50: < 49.7 nM
  TGI: 1360 nM
HT29 colon
  GI50: < 40.7 nM
  TGI: 1650 nM
MCF7 breast
  GI50: 86.6 nM
  TGI: 1160 nM
SK-MEL-2 melanoma
  GI50: 70.6 nM
  TGI: 10800 nM
SNB-19 CNS
  GI50: 145 nM
  TGI: 13700 nM
HCT-15 colon
  TGI: 1930 nM
MDA-MB-231 breast
  GI50: < 30.3 nM
  TGI: 1540 nM
T-47D breast
  GI50: < 46.4 nM
  TGI: 1460 nM
SK-MEL-5 melanoma
  GI50: 82.7 nM
  TGI: 1270 nM
SF-539 CNS
  GI50: 57.3 nM
  TGI: 263 nM
DU-145 prostate
  GI50: 73.7 nM
  TGI: 4800 nM
UACC-62 melanoma
  GI50: 79.4 nM
  TGI: 375 nM
SN12C renal
  GI50: 60.7 nM
  TGI: 4120 nM
TK-10 renal
  TGI: 2820 nM
SF-295 CNS
  TGI: 278 nM
SF-268 CNS
  GI50: 47 nM
  TGI: 1620 nM
NCI-H226 lung
  GI50: 36.6 nM
  TGI: 1050 nM
A498 renal
  GI50: 134 nM
  TGI: 3680 nM
MDA-MB-435
  GI50: 145 nM
  TGI: 1790 nM
LOX IMVI melanoma
  GI50: 74.4 nM
  TGI: 1230 nM
UACC-257 melanoma
  GI50: 81.8 nM
  TGI: 312 nM
SK-OV-3 ovarian
  GI50: 74.3 nM
  TGI: 7210 nM
M14 melanoma
  GI50: 68.4 nM
  TGI: 1320 nM
CAKI-1 renal
  TGI: 261 nM
CCRF-CEM leukemia
  GI50: < 27.6 nM
  TGI: 356 nM
SNB-75 CNS
  GI50: 205 nM
  TGI: 2180 nM
UO-31 renal
  GI50: < 44.7 nM
  TGI: 322 nM
OVCAR-5 ovarian
  TGI: 2080 nM
BT-549 breast
  GI50: 276 nM
  TGI: 17200 nM
A549 NSCLC
  GI50: < 49 nM
  TGI: 1140 nM
786-0 renal
  GI50: 105 nM
  TGI: 1270 nM
SR leukemia
  GI50: < 31 nM
  TGI: 491 nM
OVCAR-3 ovarian
  GI50: < 20.6 nM
  TGI: 1310 nM
HCC-2998 colon
  GI50: < 50.1 nM
  TGI: 1470 nM
RPMI-8226 leukemia
  GI50: 79 nM
  TGI: 1960 nM
SW-620 colon
  TGI: 1980 nM
COLO 205 colon
  GI50: < 20.1 nM
  TGI: 1170 nM
KM12 colon
  GI50: 77.2 nM
  TGI: 1790 nM
IGROV1 ovarian
  TGI: 425 nM
MOLT-4 leukemia
  TGI: 361 nM
RXF 393 renal
  GI50: 113 nM
  TGI: 1530 nM
NCI-H522 lung
  GI50: < 47.2 nM
  TGI: 124 nM
SK-MEL-28 melanoma
  GI50: 135 nM
  TGI: 1770 nM
NCI-H460 lung
  GI50: 187 nM
  TGI: 1220 nM
U251 CNS
  GI50: < 39.3 nM
  TGI: 1160 nM
HS 578T breast
  GI50: 1160 nM
  TGI: 6870 nM
MALME-3M melanoma
  GI50: 123 nM
  TGI: 1270 nM
OVCAR-4 ovarian
  GI50: 30.3 nM
  TGI: 367 nM

Source: PubChem BioAssay (NCI)
